Source: ChEMBL document CHEMBL3638637, “Imidazo[1,2-Œ±]pyridine sulfonamides as TRPM8 modulators” (2015)
pIC50: −log10 of the molar value.

Target: Transient receptor potential M8 protein (Canis lupus familiaris, UniProt Q1A7N1)
Test: FLIPR Assay: The functional activity of compounds of the formula (I) was determined by measuring changes in intracellular calcium concentration using a Ca2+-sensitive fluorescent dye. The changes in fluorescent signal were monitored by a fluorescence plate reader, either a FLIPR (Molecular Devices) or FDSS (Hamamatsu). Increases in intracellular Ca2+ concentration were readily detected upon activation with icilin.At 24 hrs prior to assay, HEK293 cells stably expressing canine TRPM8 were seeded in culture medium in black wall, clear-base poly-D-lysine coated 384-well plates (BD Biosciences, NJ, USA) and grown overnight in 5% CO2 at 37° C. On assay day, growth media was removed and cells were loaded with Calcium 3 Dye (Molecular Devices) for 35 min at 37° C., under 5% CO2 and then for 25 min at room temperature and atmosphere.
Format: cell-based

Transient receptor potential M8 protein, sequence (Q1A7N1 whole entry): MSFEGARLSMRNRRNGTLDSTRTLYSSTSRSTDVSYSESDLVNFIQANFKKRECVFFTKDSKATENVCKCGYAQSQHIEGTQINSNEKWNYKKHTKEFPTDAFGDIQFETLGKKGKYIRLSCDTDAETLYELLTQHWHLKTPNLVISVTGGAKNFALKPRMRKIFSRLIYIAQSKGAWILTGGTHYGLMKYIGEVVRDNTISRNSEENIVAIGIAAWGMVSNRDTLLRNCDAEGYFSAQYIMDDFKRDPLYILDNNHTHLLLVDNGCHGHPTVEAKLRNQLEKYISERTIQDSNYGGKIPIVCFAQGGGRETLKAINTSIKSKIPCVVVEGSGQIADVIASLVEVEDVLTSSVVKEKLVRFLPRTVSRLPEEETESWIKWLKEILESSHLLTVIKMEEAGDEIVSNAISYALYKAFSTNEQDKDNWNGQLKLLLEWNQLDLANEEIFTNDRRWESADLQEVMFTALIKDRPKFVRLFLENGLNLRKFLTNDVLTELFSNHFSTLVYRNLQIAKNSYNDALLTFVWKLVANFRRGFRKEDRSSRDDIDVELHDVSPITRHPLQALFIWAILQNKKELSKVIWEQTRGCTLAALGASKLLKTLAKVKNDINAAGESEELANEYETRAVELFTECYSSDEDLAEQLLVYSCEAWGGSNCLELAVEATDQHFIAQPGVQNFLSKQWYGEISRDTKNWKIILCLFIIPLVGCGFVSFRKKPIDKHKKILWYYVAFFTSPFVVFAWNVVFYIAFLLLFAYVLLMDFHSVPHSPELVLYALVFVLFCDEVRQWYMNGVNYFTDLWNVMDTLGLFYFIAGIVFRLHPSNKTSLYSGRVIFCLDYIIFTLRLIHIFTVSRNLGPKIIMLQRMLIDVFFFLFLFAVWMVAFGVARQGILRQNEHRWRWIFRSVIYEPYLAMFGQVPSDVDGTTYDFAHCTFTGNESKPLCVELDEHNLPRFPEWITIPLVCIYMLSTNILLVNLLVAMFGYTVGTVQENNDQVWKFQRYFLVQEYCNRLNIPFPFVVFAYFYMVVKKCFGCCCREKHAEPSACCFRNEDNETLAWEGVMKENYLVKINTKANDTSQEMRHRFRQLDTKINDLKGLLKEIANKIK

Cc1c(N(Cc2ccc(F)c(C(F)(F)F)c2)S(=O)(=O)c2ccc(C(=O)O)cc2)nc2ccc(Cl)cn12
pIC50: 7.46
